# Biological target: FGFR3 enzyme (Millipore) (Homo sapiens (Human), UniProt P22607)
# Assay: FGFR3 Enzymatic Assay (peptide phosphorylation, FRET/HTRF)
# Type: biochemical
# Settings: 140 μM ATP, 25° C. 1 hr
# Description: FGFR3 Enzymatic Assay The inhibitor potency of compounds of the invention was measured in an enzyme assay that measures peptide phosphorylation using FRET measurements to detect product formation. Inhibitors were serially diluted in DMSO and a volume of 0.5 μL was transferred to the wells of a 384-well plate. A 10 μL volume of FGFR3 enzyme (Millipore) diluted in assay buffer (50 mM HEPES, 10 mM MgCl2, 1 mM EGTA, 0.01% Tween-20, 5 mM DTT, pH 7.5) was added to the plate and pre-incubated for 5-10 minutes. Appropriate controls (enzyme blank and enzyme with no inhibitor) were included on the plate. […] The plate was incubated at 25° C. for 1 hr. […] The plate was allowed to equilibrate for ˜1 hr before scanning the wells on a PheraStar plate reader.
# GraphPad prism3 was used to analyze the data. The IC50 values were derived by fitting the data to the equation for a sigmoidal dose-response with a variable slope. Y=Bottom+(Top-Bottom)/(1+10^(Log IC50−X)*HillSlope)) where X is the logarithm of concentration and Y is the response.
# Sequence of FGFR3 enzyme (Millipore) (P22607 23-806): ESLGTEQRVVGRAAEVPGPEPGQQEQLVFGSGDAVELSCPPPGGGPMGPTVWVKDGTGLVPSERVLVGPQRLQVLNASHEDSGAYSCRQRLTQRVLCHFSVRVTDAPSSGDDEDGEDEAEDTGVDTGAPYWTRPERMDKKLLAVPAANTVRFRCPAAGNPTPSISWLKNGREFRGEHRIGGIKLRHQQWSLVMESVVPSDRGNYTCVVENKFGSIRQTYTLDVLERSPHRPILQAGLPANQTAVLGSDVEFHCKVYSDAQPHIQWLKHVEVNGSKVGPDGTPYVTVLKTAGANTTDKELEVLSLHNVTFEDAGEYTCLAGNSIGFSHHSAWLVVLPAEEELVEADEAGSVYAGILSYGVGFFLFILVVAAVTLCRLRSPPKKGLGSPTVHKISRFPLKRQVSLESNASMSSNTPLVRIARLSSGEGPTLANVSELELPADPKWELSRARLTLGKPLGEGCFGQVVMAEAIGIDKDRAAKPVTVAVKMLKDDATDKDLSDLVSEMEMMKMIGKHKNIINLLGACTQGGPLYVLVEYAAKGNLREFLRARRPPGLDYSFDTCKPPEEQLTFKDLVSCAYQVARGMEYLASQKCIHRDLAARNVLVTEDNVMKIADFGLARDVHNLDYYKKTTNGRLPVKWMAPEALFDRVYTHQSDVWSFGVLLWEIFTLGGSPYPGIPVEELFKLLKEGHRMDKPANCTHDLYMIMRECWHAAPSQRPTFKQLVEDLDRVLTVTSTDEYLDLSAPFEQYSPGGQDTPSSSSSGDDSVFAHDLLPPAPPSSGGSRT
row,Compound,IC50 [nM]
1,"CC(O)CNC(=O)C(C)n1cc(-c2cnn3c(-c4cccc(NC(=O)NCC(F)(F)F)c4)cnc3c2)cn1 (stereo not shown) [Example 63, N-(2-Hydroxypropyl)-2-(4-{3-[3-({[(2,2,2-trifluoroethyl)amino]carbonyl}amino)phenyl]imidazo[1,2-b]pyridazin-7-yl}-1H-pyrazol-1-yl)propanamide]",< 10
2,"CC(C(=O)N1CC(O)C1)n1cc(-c2cnn3c(-c4cccc(NC(=O)NCC(F)(F)F)c4)cnc3c2)cn1 (stereo not shown) [Example 64, N-[3-(7-{1-[2-(3-Hydroxyazetidin-1-yl)-1-methyl-2-oxoethyl]-1H-pyrazol-4-yl}imidazo[1,2-b]pyridazin-3-yl)phenyl]-N′-(2,2,2-trifluoroethyl)urea]",< 10
3,"CC(C(=O)N1CCC(F)(F)C1)n1cc(-c2cnn3c(-c4cccc(NC(=O)NCC(F)(F)F)c4)cnc3c2)cn1 (stereo not shown) [Example 65, N-[3-(7-{1-[2-(3,3-Difluoropyrrolidin-1-yl)-1-methyl-2-oxoethyl]-1H-pyrazol-4-yl}imidazo[1,2-b]pyridazin-3-yl)phenyl]-N′-(2,2,2-trifluoroethyl)urea]",< 10
4,"N#CCC1(n2cc(-c3cnn4c(-c5cccc(NC(=O)NCC(F)(F)F)c5)cnc4c3)cn2)CN(C(=O)C2(C#N)CC2)C1 [Example 80, N-[3-(7-{1-[1-[(1-Cyanocyclopropyl)carbonyl]-3-(cyanomethyl)azetidin-3-yl]-1H-pyrazol-4-yl}imidazo[1,2-b]pyridazin-3-yl)phenyl]-N′-(2,2,2-trifluoroethyl)urea]",< 10
5,"N#CCC1(n2cc(-c3cnn4c(-c5cccc(NC(=O)NCC(F)(F)F)c5)cnc4c3)cn2)CN(C(=O)N2CCOCC2)C1 [Example 85, N-[3-(7-{1-[3-(Cyanomethyl)-1-(morpholin-4-ylcarbonyl)azetidin-3-yl]-1H-pyrazol-4-yl}imidazo[1,2-b]pyridazin-3-yl)phenyl]-N′-(2,2,2-trifluoroethyl)urea]",< 10
6,"N#CCC1(n2cc(-c3cnn4c(-c5cccc(NC(=O)NCC(F)(F)F)c5)cnc4c3)cn2)CN(C(=O)N2CCCC2)C1 [Example 86, N-[3-(7-{1-[3-(Cyanomethyl)-1-(pyrrolidin-1-ylcarbonyl)azetidin-3-yl]-1H-pyrazol-4-yl}imidazo[1,2-b]pyridazin-3-yl)phenyl]-N′-(2,2,2-trifluoroethyl)u rea]",< 10

# Other lines, results leading:
row,IC50 [nM],Compound
1,< 10,"N#CCC(=O)N1CC(CC#N)(n2cc(-c3cnn4c(-c5cccc(NC(=O)NCC(F)(F)F)c5)cnc4c3)cn2)C1 [Example 77, N-[3-(7-{1-[1-(Cyanoacetyl)-3-(cyanomethyl)azetidin-3-yl]-1H-pyrazol-4-yl}imidazo[1,2-b]pyridazin-3-yl)phenyl]-N′-(2,2,2-trifluoroethyl)urea]"
2,< 10,"N#CCC1(n2cc(-c3cnn4c(-c5cccc(NC(=O)NCC(F)(F)F)c5)cnc4c3)cn2)CN(C(=O)CC2CC2)C1 [Example 78, N-[3-(7-{1-[3-(Cyanomethyl)-1-(cyclopropylacetyl)azetidin-3-yl]-1H-pyrazol-4-yl}imidazo[1,2-b]pyridazin-3-yl)phenyl]-N′-(2,2,2-trifluoroethyl)urea]"
3,< 10,"CC1(C(=O)N2CC(CC#N)(n3cc(-c4cnn5c(-c6cccc(NC(=O)NCC(F)(F)F)c6)cnc5c4)cn3)C2)CC1 [Example 79, N-{3-[7-(1-{3-(Cyanomethyl)-1-[(1-methylcyclopropyl)carbonyl]azetidin-3-yl}-1H-pyrazol-4-yl)imidazo[1,2-b]pyridazin-3-yl]phenyl}-N′-(2,2,2-trifluoroethyl)urea]"
4,< 10,"N#CCC1(n2cc(-c3cnn4c(-c5cccc(NC(=O)NCC(F)(F)F)c5)cnc4c3)cn2)CN(C(=O)CC2CCCO2)C1 (stereo not shown) [Example 81, N-[3-(7-{1-[3-(Cyanomethyl)-1-(tetrahydrofuran-2-ylacetyl)azetidin-3-yl]-1H-pyrazol-4-yl}imidazo[1,2-b]pyridazin-3-yl)phenyl]-N′-(2,2,2-trifluoroethyl)urea]"
5,< 10,"N#CCC1(n2cc(-c3cnn4c(-c5cccc(NC(=O)NCC(F)(F)F)c5)cnc4c3)cn2)CN(C(=O)C2CCOC2)C1 (stereo not shown) [Example 82, N-[3-(7-{1-[3-(Cyanomethyl)-1-(tetrahydrofuran-3-ylcarbonyl)azetidin-3-yl]-1H-pyrazol-4-yl}imidazo[1,2-b]pyridazin-3-yl)phenyl]-N′-(2,2,2-trifluoroethyl)urea]"
6,< 10,"N#CCC1(n2cc(-c3cnn4c(-c5cccc(NC(=O)NCC(F)(F)F)c5)cnc4c3)cn2)CN(C(=O)NCC2CC2)C1 [Example 87, 3-(Cyanomethyl)-N-(cyclopropylmethyl)-3-(4-{3-[3-({[(2,2,2-trifluoroethyl)amino]carbonyl}amino)phenyl]imidazo[1,2-b]pyridazin-7-yl}-1H-pyrazol-1-yl)azetidine-1-carboxamide]"
7,< 10,"N#CCC1(n2cc(-c3cnn4c(-c5cccc(NC(=O)NCC(F)(F)F)c5)cnc4c3)cn2)CN(C(=O)OCC2CC2)C1 [Example 88, Cyclopropylmethyl 3-(cyanomethyl)-3-(4-{3-[3-({[(2,2,2-trifluoroethyl)amino]carbonyl}amino)phenyl]imidazo[1,2-b]pyridazin-7-yl}-1H-pyrazol-1-yl)azetidine-1-carboxylate]"

# Source: patent US10813930B2, “Substituted imidazopyridazines and benzimidazoles as inhibitors of FGFR3” (Incyte Corporation, priority 2010, dated 2020)
